Measurements from patent US20170285044A1, “METHODS FOR PREDICTING AND IMPROVING THE SURVIVAL OF GASTRIC CANCER PATIENTS” (Pierian Holdings, Inc., priority 2011, published 2017).

Key:
[1] = test system: MET-amplified SNU484 cells; assay type: cell-based, human; conditions: FIG. 12
Procedure: (§1) Multiple Drug Effect Analysis: ˜1 X10^4 cells were plated in 24-well plate and grown in appropriate growth media. Lapatinib, cMET inhibitor or both agents (combo) were added at 1 μM concentration for 4 hrs and lysed for subsequent pathway profiling.
(§2) Immuno-microarray slides were rinsed 2× with TB ST (50 mM Tris/150 mM NaCl/0.1% Tween-20, pH 7.2-7.4), blocked with 80 μL Whatman Blocking Buffer lhr at RT, then washed 2× with TBST. Serially diluted lysate controls in 80 μL dilution buffer (2% BSA/0.1% TritonX-100/TBS, pH 7.2-7.4) and samples were added to designated sub-arrays on slides, then incubated 1 hour at RT. Slides were washed 4× (3 min. each), and detector Abs were added in 80 μL of reaction buffer and incubated for 2 hours at RT. After washing slides with TB ST to remove unbound detector Abs, 80 μL of biotin-tyramide solution (5 μg/m1 in 50 mM glucose/PBS) prepared from 400 μg/mL in ethanol solution (Perkin-Elmer Life Science) was added and incubated 15 min in darkness. Glucose-oxidase (GO)/HRP-mediated tyramide signal amplification process was terminated by washing with TBST 4×, 3 min each. Local deposition of biotin-tyramide was detected by incubation with streptavidin (SA)-Alexa647 (Invitrogen) at 0.5 μg/mL in 2% BSA/0.1% Triton/TBS for 40 min. Upon completion of incubation, slides were washed 4× with TBST, dried and kept in darkness until imaged via microarray scanner. […]

[2] = test system: NCI-87 cells; assay type: cell-based, human; conditions: without altering total HER2 levels, FIG. 12
Procedure: as §1, §2

[3] = test system: unselected gastric cancer patients; conditions: monotherapy; Jhawer et al., 2008; cited from earlier work

Structure (SMILES)	HER2 activation [1]	HER2 activation [2]	objective response [3]
CS(=O)(=O)CCNCc1ccc(-c2ccc3ncnc(Nc4ccc(OCc5cccc(F)c5)c(Cl)c4)c3c2)o1 [lapatinib]	unable to do so	abolished	
COc1cc2c(Oc3ccc(NC(=O)C4(C(=O)Nc5ccc(F)cc5)CC4)cc3F)ccnc2cc1OCCCN1CCOCC1 [foretinib]			failed to demonstrate an objective response
